Assay results as given in article doi:10.1101/2024.01.03.573903v1 (biorxiv, 2024).

Target: T1, ZIKV NS3 helicase (Zika virus, UniProt Q32ZE1)
T1 sequence (Q32ZE1 1673-2115 limits assumed): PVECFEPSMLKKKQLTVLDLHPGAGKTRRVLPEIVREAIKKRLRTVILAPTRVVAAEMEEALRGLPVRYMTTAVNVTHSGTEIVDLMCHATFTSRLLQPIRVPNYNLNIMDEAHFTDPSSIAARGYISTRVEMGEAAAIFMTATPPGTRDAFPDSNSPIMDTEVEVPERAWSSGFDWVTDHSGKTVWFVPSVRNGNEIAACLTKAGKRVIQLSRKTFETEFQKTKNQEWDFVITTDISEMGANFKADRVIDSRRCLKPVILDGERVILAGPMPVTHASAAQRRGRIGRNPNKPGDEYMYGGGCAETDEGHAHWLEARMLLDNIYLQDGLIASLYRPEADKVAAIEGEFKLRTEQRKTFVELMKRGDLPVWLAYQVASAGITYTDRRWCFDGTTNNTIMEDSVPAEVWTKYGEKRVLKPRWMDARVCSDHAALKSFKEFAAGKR
Test: malachite green phosphate release NTPase assay
Assay type: biochemical

## COc1cc(/C=C/C(=O)CC(=O)/C=C/c2ccc(O)c(OC)c2)ccc1O [curcumin]
  IC50: 64.4 µM
